Data from ChEMBL document CHEMBL5380773, “Novel Feleucin-K3-Derived Peptides Modified with Sulfono-γ-AA Building Blocks Targeting Pseudomonas aeruginosa and Methicillin-Resistant Staphylococcus aureus Infections” (J Med Chem, 2023).
≈ marks a conversion by molar mass, not a printed value. Calls of active or inactive are those of the source. The rule behind the calls is not given here. Numbered stars: 1 amine (or outer) side, 2 acyl side, 3 side chain; on linkers, the order of the positions; unused ones are H or OH. Square brackets hold non-standard residues; d marks the D form. Peptide text beside a SMILES is read from it. * marks the point of attachment. X2 = CC(C)C[C@H](N)CN(CC(=O)[*:2])[*:1]; X1 = O=S(=O)(c1ccc(I)cc1)*

What was measured:
Cell membrane [1] = assay: Induction of membrane disruption in methicillin resistant Staphylococcus aureus ATCC 33591 assessed as membrane shrinkage at low concentration incubated for 24 hrs by SEM analysis; type: subcellular
Cell membrane [2] = assay: Induction of membrane disruption in methicillin resistant Staphylococcus aureus ATCC 33591 assessed as membrane collapse at high concentration incubated for 24 hrs by SEM analysis; type: subcellular
Cell membrane [3] = assay: Induction of membrane disruption in Pseudomonas aeruginosa ATCC 27853 assessed as cytoplasmic leakage at 2 to 4 times MIC incubated for 24 hrs by TEM analysis; type: subcellular
Cell membrane [4] = assay: Induction of membrane disruption in methicillin resistant Staphylococcus aureus ATCC 33591 assessed as irregular atrophy at low concentration incubated for 24 hrs by SEM analysis; type: subcellular
Cell membrane [5] = assay: Induction of membrane disruption in Pseudomonas aeruginosa ATCC 27853 assessed as membrane collapse at high concentration incubated for 24 hrs by SEM analysis; type: subcellular
Escherichia coli = assay: Bactericidal activity against Escherichia coli ATCC 25922 at 1 to 2 times MIC after 2 to 3 hrs by time kill assay; type: functional, organism-based; details: time 2-3 hrs
Staphylococcus aureus [6] = assay: Antibiofilm activity against methicillin resistant staphylococcus aureus ATCC 33591 at 4 to 8 ug/ml incubated for 24 hrs by crystal violet staining based microplate reader analysis; type: functional, organism-based; details: dose 4-8 µg/ml
Pseudomonas aeruginosa [7] = assay: Antimicrobial activity against Pseudomonas aeruginosa ATCC 27853 infected in C57BL/6J mouse assessed as reduction in lung bacterial load at 2.5 mg/kg, ip measured after 72 hrs […] (reference value: 6.4 10^3CFU/mg); type: functional
Pseudomonas aeruginosa [8] = assay: Induction of resistant development in Pseudomonas aeruginosa ATCC 27853 at sub-MIC after 20 days; type: functional, organism-based; details: time 20.0 day
Cell membrane [9] = assay: Induction of membrane disruption in methicillin resistant Staphylococcus aureus ATCC 33591 assessed as cell lysis at high concentration incubated for 24 hrs by SEM analysis; type: subcellular
Staphylococcus aureus [10] = assay: Antimicrobial activity against methicillin resistant Staphylococcus aureus ATCC 33591 infected in skin wound mouse model assessed as wound healing at 0.25 mg/kg measured upto 10 days by H and E staining based assay; type: functional, organism-based; details: time <= 10.0 day
Pseudomonas aeruginosa [11] = assay: Induction of protein leakage in Pseudomonas aeruginosa ATCC 27853 after 1 to 6 hrs; type: functional, organism-based; details: time 1-6 hrs
Pseudomonas aeruginosa [12] = assay: Antibiofilm activity against Pseudomonas aeruginosa ATCC 27853 assessed as reduction in biofilm numbers at 1 times MBIC90 incubated for 24 hrs by confocal laser scanning microscopy analysis; type: functional, organism-based
Pseudomonas aeruginosa [13] = assay: Antimicrobial activity against Pseudomonas aeruginosa ATCC 27853 infected in C57BL/6J mouse assessed as reduction in lung bacterial load at 10 mg/kg, ip measured after 72 hrs […] (reference value: 6.4 10^3CFU/mg); type: functional
Pseudomonas aeruginosa [14] = assay: Induction of DNA leakage in Pseudomonas aeruginosa ATCC 27853 after 1 to 6 hrs; type: functional, organism-based; details: time 1-6 hrs
Pseudomonas aeruginosa [15] = assay: Induction of DNA leakage in Pseudomonas aeruginosa ATCC 27853; type: functional, organism-based; details: TDE = time-dependent effect
Cell membrane [16] = assay: Induction of membrane disruption in Pseudomonas aeruginosa ATCC 27853 assessed as membrane blebbing at low concentration incubated for 24 hrs by SEM analysis; type: subcellular
Cell membrane [17] = assay: Induction of outer membrane disruption in Pseudomonas aeruginosa in presence of FeCl3 by NPN uptake assay; type: subcellular
Cell membrane [18] = assay: Induction of membrane disruption in Pseudomonas aeruginosa ATCC 27853 assessed as cell lysis at high concentration incubated for 24 hrs by SEM analysis; type: subcellular
Pseudomonas aeruginosa [19] = assay: Antibiofilm activity against Pseudomonas aeruginosa ATCC 27853 assessed as reduction in biofilm thickness at 1 times MBIC90 incubated for 24 hrs by confocal laser scanning microscopy analysis (reference value: 90 micrometer); type: functional
Cell membrane [20] = assay: Induction of membrane disruption in Pseudomonas aeruginosa ATCC 27853 assessed as separation of cytoplasmic membrane at 2 to 4 times MIC incubated for 24 hrs by TEM analysis; type: subcellular
Pseudomonas aeruginosa [21] = assay: Antimicrobial activity against Pseudomonas aeruginosa ATCC 27853 incubated for 18 hrs by microdilution method; type: functional
Cell membrane [22] = assay: Induction of cytoplasmic membrane depolarization in Pseudomonas aeruginosa ATCC 27853 by DiSC35 dye based fluorescence method
Staphylococcus aureus [23] = assay: Antimicrobial activity against methicillin resistant Staphylococcus aureus ATCC 33591 infected in skin wound mouse model assessed as reduction in inflammatory infiltration at […] by H and E staining based assay; type: functional, organism-based; details: dose lower 10.0 mg/kg
Staphylococcus aureus [24] = assay: Antimicrobial activity against Staphylococcus aureus in presence of LPS/LTA; type: functional
Pseudomonas aeruginosa [25] = assay: Antimicrobial activity against Pseudomonas aeruginosa ATCC 27853 infected in C57BL/6J mouse assessed as reduction in TNF-alpha at 2.5 mg/kg, ip measured after 72 hrs […]; type: functional, organism-based
Staphylococcus aureus [26] = assay: Antimicrobial activity against methicillin resistant Staphylococcus aureus ATCC 33591 infected in skin wound mouse model assessed as reduction in edema at 1 to 4 mg/kg measured on day 3 and 7 by H and E staining based assay; type: functional, organism-based; details: dose 1-4 mg/kg, time 3-7 day
Cell membrane [27] = assay: Induction of outer membrane disruption in Pseudomonas aeruginosa in presence of CaCl2 by NPN uptake assay; type: subcellular
Pseudomonas aeruginosa [28] = assay: Antimicrobial activity against Pseudomonas aeruginosa ATCC 27853 infected in C57BL/6J mouse assessed as reduction in IL-6 at 2.5 mg/kg, ip measured after 72 hrs […]; type: functional, organism-based
Pseudomonas aeruginosa [29] = assay: Antibiofilm activity against Pseudomonas aeruginosa ATCC 27853 assessed as reduction in biofilm thickness at 2 times MBIC90 incubated for 24 hrs by confocal laser scanning microscopy analysis; type: functional
Cell membrane [30] = assay: Induction of membrane disruption in methicillin resistant Staphylococcus aureus ATCC 33591 assessed as membrane collapse at 2 to 4 times MIC incubated for 2 to 4 hrs by TEM analysis; type: subcellular; details: time 2-4 hrs
Pseudomonas aeruginosa [31] = assay: Induction of protein leakage in Pseudomonas aeruginosa ATCC 27853; type: functional, organism-based; details: TDE = time-dependent effect
Pseudomonas aeruginosa [32] = assay: Antibiofilm activity against Pseudomonas aeruginosa ATCC 27853 at 4 to 8 ug/ml incubated for 24 hrs by crystal violet staining based microplate reader analysis; type: functional, organism-based; details: dose 4-8 µg/ml
Staphylococcus aureus [33] = assay: Bactericidal activity against Staphylococcus aureus ATCC 25923 at 4 times MIC after 2 to 4 hrs; type: functional, organism-based; details: time 2-4 hrs
Staphylococcus aureus [34] = assay: Antibiofilm activity against methicillin resistant Staphylococcus aureus ATCC 33591 assessed as reduction in biofilm thickness; type: functional, organism-based
DNA = assay: Binding affinity to Pseudomonas aeruginosa DNA at 8 times MIC incubated for 30 mins; type: nucleic-acid assay
Staphylococcus aureus [35] = assay: Antimicrobial activity against methicillin resistant Staphylococcus aureus ATCC 33591 infected in BALB/c mouse assessed as reduction in inflammatory cell infiltration at 0.25 to 1 mg/kg infected with bacteria for 2 hrs prior to compound addition on 1, 24 and 48 hrs and measured after 72 hrs by H and E staining based assay; type: functional, organism-based; details: dose 0.25-1 mg/kg
[36] = tested on: Staphylococcus epidermidis; assay: Antibiofilm activity against Staphylococcus epidermidis ATCC 12228 assessed as reduction in biofilm mass; type: functional, organism-based
Staphylococcus aureus [37] = assay: Antibiofilm activity against methicillin resistant Staphylococcus aureus ATCC 33591 assessed as reduction in biofilm mass; type: functional, organism-based

CC(C)C[C@H](N)CN(CC(=O)N[C@@H](CCCCN)C(=O)N[C@@H](CC(C)C)C(=O)N[C@@H](CC(C)C)C(=O)N[C@@H](CCCCN)C(=O)N[C@@H](CCCCN)C(=O)N[C@@H](CC(C)C)C(=O)N[C@@H](CC(C)C)C(N)=O)S(=O)(=O)c1ccc(I)cc1 (X1-[X2]KLLKKLL-NH2)
Activity (Cell membrane [1]): Active
Activity (Cell membrane [2]): Active
Activity (Cell membrane [3]): Active
Activity (Cell membrane [4]): Active
Activity (Cell membrane [5]): Active
Activity (Escherichia coli): Active
Activity (Staphylococcus aureus [6]): Active
Activity (Pseudomonas aeruginosa [7]): 3 10^3CFU/mg
Activity (Pseudomonas aeruginosa [8]): Active
Activity (Cell membrane [9]): Active
Activity (Staphylococcus aureus [10]): Active
Activity (Pseudomonas aeruginosa [11]): Dose-Dependent Effect
Activity (Pseudomonas aeruginosa [12]): Active
Activity (Pseudomonas aeruginosa [13]): 1 10^3CFU/mg
Activity (Pseudomonas aeruginosa [14]): Dose-Dependent Effect
Activity (Pseudomonas aeruginosa [15]): Tde
Activity (Cell membrane [16]): Active
Activity (Cell membrane [17]): Active
Activity (Cell membrane [18]): Active
Activity (Pseudomonas aeruginosa [19]): 20 um
Activity (Cell membrane [20]): Active
MIC (Pseudomonas aeruginosa [21]): 3 µg/mL (≈ 2.35 µM)
Activity (Cell membrane [22]): Active
Activity (Staphylococcus aureus [23]): Active
MIC (Staphylococcus aureus [24]): ≥ 16 µg/mL
Activity (Pseudomonas aeruginosa [25]): Active
Activity (Staphylococcus aureus [26]): Active
Activity (Cell membrane [27]): Active
Activity (Pseudomonas aeruginosa [28]): Active
Activity (Pseudomonas aeruginosa [29]): 60 um
Activity (Cell membrane [30]): Active
Activity (Pseudomonas aeruginosa [31]): Tde
Activity (Pseudomonas aeruginosa [32]): Active
Activity (Staphylococcus aureus [33]): Active
Activity (Staphylococcus aureus [34]): Active
Activity (DNA): Active
Activity (Staphylococcus aureus [35]): Active
Activity [36]: Active
Activity (Staphylococcus aureus [37]): Active
